One assay addresses BRD4-BD1 (Homo sapiens (Human), UniProt O60885). In words: BRD4 AlphaScreen Assay (Example A2), BRD4-BD1. In kind it is binding. The note with it: read-out: BRD4 BD-1 enzyme IC50. The method in brief:
(§1)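 Displacement of 50 nM biotinylated tetra-acetylated histone H4 peptide from BRD4 BD1 or BD2 (<1 nM) in Tris-HCl pH 7.5 buffer with DTT. Inhibitors serially diluted in DMSO, added first, then incubated 75 min in the dark at room temperature before AlphaScreen read. IC50 fitted from percent control activity versus log concentration.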
A general note: Bead proximity is the source of the signal in Alpha formats.

The next assay has as its target BRD4-BD2 (Homo sapiens (Human), UniProt O60885). The assay is described as follows: BRD4 AlphaScreen Assay (Example A2), BRD4-BD2. In kind it is binding. The note with it: read-out: BRD4 BD-2 enzyme IC50. The method in brief: as §1
The mark [1] stands for this setting: Assay A2, AlphaScreen, BRD4-BD1.
The mark [2] stands for this setting: Assay A2, AlphaScreen, BRD4-BD2.

Structures can show the parent of a compound that is named as a salt. Where two headings read alike, the source gives them in different places.

Take `Cc1noc(C)c1-c1ccc2nc(C3CCN(C(=O)OC(C)(C)C)CC3)n3c2c1OC[C@@H]3c1ccccn1` [Example 100, tert-Butyl 4-[(4S)-7-(3,5-dimethylisoxazol-4-yl)-4-pyridin-2-yl-4,5-dihydroimidazo[1,5,4-de][1,4]benzoxazin-2-yl]piperidine-1-carboxylate]: the 50% inhibitory concentration (IC50) at BRD4-BD1 (setting [1]) and on BRD4-BD2 (setting [2]) was < 0.1 µM each time.

Turning to `Cc1noc(C)c1-c1ccc2nc(C3=CCNC3)n3c2c1OC[C@@H]3c1ccccn1` [Example 105, (4S)-2-(2,5-dihydro-1H-pyrrol-3-yl)-7-(3,5-dimethylisoxazol-4-yl)-4-pyridin-2-yl-4,5-dihydroimidazo[1,5,4-de][1,4]benzoxazine], the half-inhibitory concentration (IC50) at BRD4-BD1 (setting [1]) and at BRD4-BD2 (setting [2]) was < 0.1 µM throughout.

For the compound `CC(=O)N1CCC(c2nc3ccc(-c4c(C)noc4C)c4c3n2[C@@H](c2ccccn2)CO4)CC1` [Example 109, (4S)-2-(1-Acetylpiperidin-4-yl)-7-(3,5-dimethylisoxazol-4-yl)-4-pyridin-2-yl-4,5-dihydroimidazo[1,5,4-de][1,4]benzoxazine], the concentration for half-maximal inhibition (IC50) on BRD4-BD1 (setting [1]) and on BRD4-BD2 (setting [2]) was < 0.1 µM in each case.

Regarding `CC(=O)N1CC=C(c2nc3ccc(-c4c(C)noc4C)c4c3n2[C@@H](c2ccccn2)CO4)CC1` [Example 110, (4S)-2-(1-acetyl-1,2,3,6-tetrahydropyridin-4-yl)-7-(3,5-dimethylisoxazol-4-yl)-4-pyridin-2-yl-4,5-dihydroimidazo[1,5,4-de][1,4]benzoxazine], the IC50 on BRD4-BD1 (setting [1]) and on BRD4-BD2 (setting [2]) was < 0.1 µM each time.

In the case of `Cc1noc(C)c1-c1ccc2nc(C3CCN(C(=O)C4CC4)CC3)n3c2c1OC[C@@H]3c1ccccn1` [Example 111, (4S)-2-[1-(cyclopropylcarbonyl)piperidin-4-yl]-7-(3,5-dimethylisoxazol-4-yl)-4-pyridin-2-yl-4,5-dihydroimidazo[1,5,4-de][1,4]benzoxazine], the IC50 on BRD4-BD1 (setting [1]) and on BRD4-BD2 (setting [2]) was < 0.1 µM each time.

`Cc1noc(C)c1-c1ccc2nc(C3CCN(S(C)(=O)=O)CC3)n3c2c1OC[C@@H]3c1ccccn1` [Example 112, (4S)-7-(3,5-dimethylisoxazol-4-yl)-2-[1-(methylsulfonyl)piperidin-4-yl]-4-pyridin-2-yl-4,5-dihydroimidazo[1,5,4-de][1,4]benzoxazine]: the IC50 at BRD4-BD1 (setting [1]) and on BRD4-BD2 (setting [2]) was < 0.1 µM throughout.

For `CC(=O)N1CCC=C(c2nc3ccc(-c4c(C)noc4C)c4c3n2[C@@H](c2ccccn2)CO4)C1` [Example 116, (4S)-2-(1-acetyl-1,2,5,6-tetrahydropyridin-3-yl)-7-(3,5-dimethylisoxazol-4-yl)-4-pyridin-2-yl-4,5-dihydroimidazo[1,5,4-de][1,4]benzoxazine], the 50% inhibitory concentration (IC50) at BRD4-BD1 (setting [1]) and at BRD4-BD2 (setting [2]) was < 0.1 µM throughout.

On to `Cc1noc(C)c1-c1ccc2[nH]c(=O)n3c2c1CCC3c1ccccc1` (centres unmarked) [Example 120, 7-(3,5-Dimethylisoxazol-4-yl)-4-phenyl-5,6-dihydro-4H-imidazo[4,5,1-ij]quinolin-2(1H)-one], for which the IC50 at BRD4-BD1 (setting [1]) and at BRD4-BD2 (setting [2]) was < 0.1 µM in each case.

`COn1c(=O)n2c3c(c(-c4c(C)noc4C)ccc31)CCC2c1ccccn1` (centres unmarked) [Example 122, 7-(3,5-Dimethylisoxazol-4-yl)-1-methoxy-4-pyridin-2-yl-5,6-dihydro-4H-imidazo[4,5,1-ij]quinolin-2(1H)-one trifluoroacetate]: the IC50 (usually the concentration that inhibits the measured activity by half) is 0.1 to 1 µM at BRD4-BD1 (setting [1]) and < 0.1 µM at BRD4-BD2 (setting [2]).

Turning to `Cc1noc(C)c1-c1ccc2[nH]c(=O)n3c2c1CCC3c1ccccn1` (centres unmarked) [Example 123, 7-(3,5-Dimethylisoxazol-4-yl)-4-pyridin-2-yl-5,6-dihydro-4H-imidazo[4,5,1-ij]quinolin-2(1H)-one trifluoroacetate], the values for the half-inhibitory concentration (IC50) on BRD4-BD1 (setting [1]) and on BRD4-BD2 (setting [2]) were 0.1 to 1 µM and < 0.1 µM, respectively.

In the case of `Cc1noc(CF)c1-c1ccc2[nH]c(=O)n3c2c1OCC3c1ccccn1` (centres unmarked) [Example 125, 7-[5-(Fluoromethyl)-3-methylisoxazol-4-yl]-4-pyridin-2-yl-4,5-dihydroimidazo[1,5,4-de][1,4]benzoxazin-2(1H)-one trifluoroacetate], the concentration for half-maximal inhibition (IC50) at BRD4-BD1 (setting [1]) was 1 to 10 µM; at BRD4-BD2 (setting [2]), < 0.1 µM.

Turning to `Cc1noc(C)c1-c1ccc2[nH]c(=O)n3c2c1OCC3c1cccnc1C(N)=O` (centres unmarked) [Example 127, 3-[7-(3,5-Dimethylisoxazol-4-yl)-2-oxo-1,2,4,5-tetrahydroimidazo[1,5,4-de][1,4]benzoxazin-4-yl]pyridine-2-carboxamide trifluoroacetate], the IC50 on BRD4-BD1 and on BRD4-BD2 was < 0.1 µM each time.

As to `CNC(=O)c1ncccc1C1COc2c(-c3c(C)noc3C)ccc3[nH]c(=O)n1c23` (centres unmarked) [Example 128, 3-[7-(3,5-Dimethylisoxazol-4-yl)-2-oxo-1,2,4,5-tetrahydroimidazo[1,5,4-de][1,4]benzoxazin-4-yl]-N-methylpyridine-2-carboxamide], the 50% inhibitory concentration (IC50) at BRD4-BD1 (setting [1]) and at BRD4-BD2 (setting [2]) was < 0.1 µM each time.

With `Cc1noc(C)c1-c1ccc2[nH]c(=O)n3c2c1OCC3c1cccnc1CN` (centres unmarked) [Example 130, 4-[2-(Aminomethyl)pyridin-3-yl]-7-(3,5-dimethylisoxazol-4-yl)-4,5-dihydroimidazo[1,5,4-de][1,4]benzoxazin-2(1H)-one bis(trifluoroacetate)], the concentration for half-maximal inhibition (IC50) on BRD4-BD1 (setting [1]) and on BRD4-BD2 (setting [2]) was < 0.1 µM throughout.

In the case of `Cc1noc(C)c1-c1cc(CN)c2[nH]c(=O)n3c2c1OC[C@@H]3c1ccccn1` [Example 137, (4S)-9-(Aminomethyl)-7-(3,5-dimethylisoxazol-4-yl)-4-pyridin-2-yl-4,5-dihydroimidazo[1,5,4-de][1,4]benzoxazin-2(1H)-one bis(trifluoroacetate)], the IC50 on BRD4-BD1 (setting [1]) was 1 to 10 µM; on BRD4-BD2 (setting [2]) it was < 0.1 µM.

As to `Cc1noc(C)c1-c1cc(CNC(=O)Cc2ccccc2)c2[nH]c(=O)n3c2c1OC[C@@H]3c1ccccn1` [Example 139, N-{[(4S)-7-(3,5-Dimethylisoxazol-4-yl)-2-oxo-4-pyridin-2-yl-1,2,4,5-tetrahydroimidazo[1,5,4-de][1,4]benzoxazin-9-yl]methyl}-2-phenylacetamide], the IC50 at BRD4-BD1 (setting [1]) and at BRD4-BD2 (setting [2]) was < 0.1 µM in each case.

Regarding `COCC(=O)NCc1cc(-c2c(C)noc2C)c2c3c1[nH]c(=O)n3[C@@H](c1ccccn1)CO2` [Example 140, N-{[(4S)-7-(3,5-Dimethylisoxazol-4-yl)-2-oxo-4-pyridin-2-yl-1,2,4,5-tetrahydroimidazo[1,5,4-de][1,4]benzoxazin-9-yl]methyl}-2-methoxyacetamide], the IC50 at BRD4-BD1 (setting [1]) and on BRD4-BD2 (setting [2]) was < 0.1 µM in each case.

In the case of `Cc1noc(C)c1-c1cc(CNS(C)(=O)=O)c2[nH]c(=O)n3c2c1OC[C@@H]3c1ccccn1` [Example 141, N-{[(4S)-7-(3,5-Dimethylisoxazol-4-yl)-2-oxo-4-pyridin-2-yl-1,2,4,5-tetrahydroimidazo[1,5,4-de][1,4]benzoxazin-9-yl]methyl}methanesulfonamide], the IC50 at BRD4-BD1 (setting [1]) and at BRD4-BD2 (setting [2]) was < 0.1 µM each time.

`Cc1noc(C)c1-c1cc(CNC(=O)NC(C)C)c2[nH]c(=O)n3c2c1OC[C@@H]3c1ccccn1` [Example 142, N-{[(4S)-7-(3,5-Dimethylisoxazol-4-yl)-2-oxo-4-pyridin-2-yl-1,2,4,5-tetrahydroimidazo[1,5,4-de][1,4]benzoxazin-9-yl]methyl}-N′-isopropylurea]: the results for the IC50 at BRD4-BD1 (setting [1]) and on BRD4-BD2 (setting [2]) were 0.1 to 1 µM and < 0.1 µM, respectively.

For the compound `Cc1noc(C)c1-c1cc(CNC(=O)CN(C)C)c2[nH]c(=O)n3c2c1OC[C@@H]3c1ccccn1` [Example 143, 2-(Dimethylamino)-N-{[(4S)-7-(3,5-dimethylisoxazol-4-yl)-2-oxo-4-pyridin-2-yl-1,2,4,5-tetrahydroimidazo[1,5,4-de][1,4]benzoxazin-9-yl]methyl}acetamide], the concentration for half-maximal inhibition (IC50) on BRD4-BD1 (setting [1]) was 0.1 to 1 µM; on BRD4-BD2 (setting [2]), < 0.1 µM.

For the compound `CC(=O)N1CCCN(c2nc3ccc(-c4c(C)noc4C)c4c3n2[C@@H](c2ccccn2)CO4)CC1` [Example 148, (4S)-2-(4-Acetyl-1,4-diazepan-1-yl)-7-(3,5-dimethylisoxazol-4-yl)-4-pyridin-2-yl-4,5-dihydroimidazo[1,5,4-de][1,4]benzoxazine], the IC50 on BRD4-BD1 (setting [1]) and on BRD4-BD2 (setting [2]) was < 0.1 µM in each case.

As for `Cc1noc(C)c1-c1ccc2nc(N3CCCN(S(C)(=O)=O)CC3)n3c2c1OC[C@@H]3c1ccccn1` [Example 149, (4S)-7-(3,5-Dimethylisoxazol-4-yl)-2-[4-(methylsulfonyl)-1,4-diazepan-1-yl]-4-pyridin-2-yl-4,5-dihydroimidazo[1,5,4-de][1,4]benzoxazine], the IC50 on BRD4-BD1 (setting [1]) and on BRD4-BD2 (setting [2]) was < 0.1 µM in each case.

For the compound `Cc1noc(C)c1-c1ccc2nc(N3CC[C@@H](N(C)C(=O)CC#N)C3)n3c2c1OC[C@@H]3c1ccccn1` [Example 152, 2-Cyano-N-{(3R)-1-[(4S)-7-(3,5-dimethylisoxazol-4-yl)-4-pyridin-2-yl-4,5-dihydroimidazo[1,5,4-de][1,4]benzoxazin-2-yl]pyrrolidin-3-yl}-N-methylacetamide], the half-inhibitory concentration (IC50) at BRD4-BD1 (setting [1]) and at BRD4-BD2 (setting [2]) was < 0.1 µM throughout.

On to `Cc1noc(C)c1-c1ccc2nc(N3CC[C@@H](NC(=O)N4CCOCC4)C3)n3c2c1OC[C@@H]3c1ccccn1` [Example 153, N-{(3R)-1-[(4S)-7-(3,5-Dimethylisoxazol-4-yl)-4-pyridin-2-yl-4,5-dihydroimidazo[1,5,4-de][1,4]benzoxazin-2-yl]pyrrolidin-3-yl}morpholine-4-carboxamide], for which the 50% inhibitory concentration (IC50) at BRD4-BD1 (setting [1]) and on BRD4-BD2 (setting [2]) was < 0.1 µM in each case.

Take `Cc1noc(C)c1-c1cc(F)c2nc(N(C)C)n3c2c1OCC3c1cccnc1` (centres unmarked) [Example 156, 7-(3,5-Dimethylisoxazol-4-yl)-9-fluoro-N,N-dimethyl-4-pyridin-3-yl-4,5-dihydroimidazo[1,5,4-de][1,4]benzoxazin-2-amine]: the concentration for half-maximal inhibition (IC50) on BRD4-BD1 (setting [1]) is 0.1 to 1 µM; at BRD4-BD2 (setting [2]), < 0.1 µM.
